The source of these data is US20260317324A1, “BIFUNCTIONAL COMPOUNDS FOR DEGRADING BRAF VIA UBIQUITIN PROTEOSOME PATHWAY” (Nurix Therapeutics, Inc., priority 2023, published 2026).

The target of this test is T1, BRAF V600E (Homo sapiens, UniProt P15056, V600E).
T1 construct: endogenous C-terminal HiBiT fusion tag on BRAF V600E allele; endogenous in cells; host or cells: A375 clone 1F10 (CRISPR-Cas9 knock-in of the HiBiT tag; parental A375 from ATCC)
Put plainly: BRAF HiBiT degradation assay, C-terminal HiBiT-tagged BRAF V600E A375 cells (clone 1F10), Nano-Glo HiBiT Lytic assay. The class given is cell-based. As to conditions: for Dmax: A-375. A digest of the protocol: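 A375 cells (clone 1F10, endogenous C-terminal HiBiT on BRAF V600E) were seeded at 10,000 cells/well, grown 24 h, then dosed in duplicate with an 11-point series from 1 μM to 0.01 nM (0.2% DMSO). Nano-Glo HiBiT lytic luminescence was normalised to DMSO and wildtype-A375 background; DC50 was read at 50% protein remaining, alongside observed Dmax.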
On the technique in general: The HiBiT peptide binds its large partner to form an active luciferase.

The mark [1] stands for this setting: A375 (BRAF V600E), DC50 at 50%: fitted conc. at Y=50.
The mark [2] stands for this setting: A375 (BRAF V600E), percentage protein degraded at maximal compound effect relative to DMSO.

T1 sequence (P15056 whole entry V600E, the tested form may be a part): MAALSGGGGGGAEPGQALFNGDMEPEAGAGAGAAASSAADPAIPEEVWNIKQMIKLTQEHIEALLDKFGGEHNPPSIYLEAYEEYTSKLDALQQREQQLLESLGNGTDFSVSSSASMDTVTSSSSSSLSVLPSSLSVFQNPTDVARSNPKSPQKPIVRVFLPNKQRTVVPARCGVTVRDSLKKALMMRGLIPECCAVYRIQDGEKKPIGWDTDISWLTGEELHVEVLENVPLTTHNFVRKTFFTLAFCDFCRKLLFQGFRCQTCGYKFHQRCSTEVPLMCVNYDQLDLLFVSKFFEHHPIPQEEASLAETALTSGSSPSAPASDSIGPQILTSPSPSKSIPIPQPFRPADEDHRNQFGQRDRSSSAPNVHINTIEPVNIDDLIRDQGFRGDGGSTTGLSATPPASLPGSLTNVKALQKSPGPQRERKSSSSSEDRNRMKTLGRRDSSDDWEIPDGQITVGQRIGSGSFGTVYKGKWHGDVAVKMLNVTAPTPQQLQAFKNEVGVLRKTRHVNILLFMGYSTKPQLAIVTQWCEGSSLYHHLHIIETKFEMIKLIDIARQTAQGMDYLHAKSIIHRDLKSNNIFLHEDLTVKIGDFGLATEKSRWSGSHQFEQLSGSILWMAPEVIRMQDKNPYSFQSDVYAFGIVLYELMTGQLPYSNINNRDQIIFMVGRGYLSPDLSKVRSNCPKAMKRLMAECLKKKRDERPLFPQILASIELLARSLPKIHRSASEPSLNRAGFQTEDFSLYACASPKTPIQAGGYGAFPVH

With `CCCS(=O)(=O)Nc1cccc(-c2nc(C3CCN(C(=O)CN4CCC5(CC4)CN(c4ccc6c(c4)C(=O)N(C4CCC(=O)NC4=O)C6=O)C5)CC3)sc2-c2ccnc(N)n2)c1F` (racemic) [Compound 239, Rac-N-{3-[5-(2-aminopyrimidin-4-yl)-2-{1-[2-(2-{2-[(3R)-2,6-dioxopiperidin-3-yl]-1,3-dioxo-2,3-dihydro-1H-isoindol-5-yl}-2,7-diazaspiro[3.5]nonan-7-yl)acetyl]piperidin-4-yl}-1,3-thiazol-4-yl]-2-fluorophenyl}propane-1-sulfonamide], the 50% degradation concentration (DC50) under setting [1] is less than 10 nM. Also, the greatest degradation seen (Dmax) under setting [2] was greater than 70%.

Where the note is “A375 (BRAF V600E, Class 1), DC50 at 50% degradation”, `O=C1CCC(c2ccc(N3CCC(CN4CCN(c5ccc(-n6cc(-c7cc(F)cc(NS(=O)(=O)N8CCCC8)c7F)c(-c7ccncc7)n6)c(F)c5)CC4)CC3)nc2)C(=O)N1` (racemic) [Compound 341, Rac-N-{3-[1-(4-{4-[(1-{5-[(3R)-2,6-dioxopiperidin-3-yl]pyridin-2-yl}piperidin-4-yl)methyl]piperazin-1-yl}-2-fluorophenyl)-3-(pyridin-4-yl)-1H-pyrazol-4-yl]-2,5-difluorophenyl}pyrrolidine-1-sulfonamide] displayed a half-maximal degradation concentration (DC50) of less than 10 nM. The compound also yielded a maximal degradation (Dmax) (A375 (BRAF V600E, Class 1), observed Dmax, % protein degraded relative to DMSO control) greater than 70%.

In turn, `CCCS(=O)(=O)Nc1cccc(-c2nc(C3CCN(C(=O)C4CCN(C(=O)C5CCN(c6ccc(C7CCC(=O)NC7=O)cc6)CC5)CC4)CC3)sc2-c2ccnc(N)n2)c1F` (racemic) [Compound 216, Rac-N-{3-[5-(2-aminopyrimidin-4-yl)-2-{1-[1-(1-{4-[(3R)-2,6-dioxopiperidin-3-yl]phenyl}piperidine-4-carbonyl)piperidine-4-carbonyl]piperidin-4-yl}-1,3-thiazol-4-yl]-2-fluorophenyl}propane-1-sulfonamide] gave a 50% degradation concentration (DC50) under setting [1] of less than 10 nM. Under setting [2], this compound had a Dmax greater than 70%.

Take `CCCS(=O)(=O)Nc1cccc(-c2nc(C3CCN(C(=O)C4(C)CCN(C(=O)C5CCN(c6ccc(C7CCC(=O)NC7=O)cc6)CC5)CC4)CC3)sc2-c2ccnc(N)n2)c1F` (racemic) [Compound 196, Rac-N-{3-[5-(2-aminopyrimidin-4-yl)-2-{1-[1-(1-{4-[(3R)-2,6-dioxopiperidin-3-yl]phenyl}piperidine-4-carbonyl)-4-methylpiperidine-4-carbonyl]piperidin-4-yl}-1,3-thiazol-4-yl]-2-fluorophenyl}propane-1-sulfonamide]: the half-maximal degradation concentration (DC50) under setting [1] is less than 10 nM. In addition, the Dmax under setting [2] is greater than 70%.

With `CCN(C)S(=O)(=O)Nc1cccc(-c2nc(C)sc2-c2ccnc(Nc3ccc(N4CCN(CC5(C)CCN(c6ccc(C7CCC(=O)NC7=O)cn6)CC5)CC4)cn3)n2)c1F` (racemic) [Compound 34, Rac-(3S)-3-{6-[4-({4-[6-({4-[4-(3-{[ethyl(methyl)sulfamoyl]amino}-2-fluorophenyl)-2-methyl-1,3-thiazol-5-yl]pyrimidin-2-yl}amino)pyridin-3-yl]piperazin-1-yl}methyl)-4-methylpiperidin-1-yl]pyridin-3-yl}piperidine-2,6-dione], the 50% degradation concentration (DC50) under setting [1] lay within 10 to 50 nM. For the same compound, the Dmax under setting [2] is greater than 70%.

On to `CCCS(=O)(=O)Nc1cccc(-c2nc(-c3ccc(C4CCN(C(=O)C5CCN(c6ccc(C7CCC(=O)NC7=O)cn6)CC5)CC4)cc3)sc2-c2ccnc(N)n2)c1F` (racemic) [Compound 201, Rac-N-{3-[5-(2-aminopyrimidin-4-yl)-2-{4-[1-(1-{5-[(3R)-2,6-dioxopiperidin-3-yl]pyridin-2-yl}piperidine-4-carbonyl)piperidin-4-yl]phenyl}-1,3-thiazol-4-yl]-2-fluorophenyl}propane-1-sulfonamide], for which, under setting [1], the half-maximal degradation concentration (DC50) was 10 to 50 nM. Besides, under setting [2], the Dmax fell in the range of 30 to 70%.

Usually DC50 stands for the concentration at which degradation of the target reaches its halfway point. What is called Dmax is the greatest extent of degradation seen. A low value points to shallow degradation.
